# Source: patent US20170100489A1, “POLYETHYLENE GLYCOL-MODIFIED INTEGRIN BLOCKER HM-3 AND USE THEREOF” (HANMEI XU, priority 2012, published 2017)
# Where two headings read alike, the source gives them in different places. Marks after values point to notes of the source that are not given here. Where no end group is shown, it is not given here. mPEG‑SC20k = methoxy polyethylene glycol-succinimidyl-carbonate, 20000 Da
# Columns and labels:
# [1] = target: T1, integrin α5β1 (Homo sapiens, UniProt P05556+P08648); assay: Combination with targets through flow cytometry (FITC labeled polypeptide, function-blocking antibody); format: binding; conditions: Bel-7402 and MCF-7 cells, 2 mg/ml, FIG. 1
# T1 construct: Bel-7402 tumor cells and MCF-7 fusion cultured to 80%; endogenous in cells; host or cells: Bel-7402 and MCF-7 tumor cells
# T1 sequence (P08648 42-894 limits assumed): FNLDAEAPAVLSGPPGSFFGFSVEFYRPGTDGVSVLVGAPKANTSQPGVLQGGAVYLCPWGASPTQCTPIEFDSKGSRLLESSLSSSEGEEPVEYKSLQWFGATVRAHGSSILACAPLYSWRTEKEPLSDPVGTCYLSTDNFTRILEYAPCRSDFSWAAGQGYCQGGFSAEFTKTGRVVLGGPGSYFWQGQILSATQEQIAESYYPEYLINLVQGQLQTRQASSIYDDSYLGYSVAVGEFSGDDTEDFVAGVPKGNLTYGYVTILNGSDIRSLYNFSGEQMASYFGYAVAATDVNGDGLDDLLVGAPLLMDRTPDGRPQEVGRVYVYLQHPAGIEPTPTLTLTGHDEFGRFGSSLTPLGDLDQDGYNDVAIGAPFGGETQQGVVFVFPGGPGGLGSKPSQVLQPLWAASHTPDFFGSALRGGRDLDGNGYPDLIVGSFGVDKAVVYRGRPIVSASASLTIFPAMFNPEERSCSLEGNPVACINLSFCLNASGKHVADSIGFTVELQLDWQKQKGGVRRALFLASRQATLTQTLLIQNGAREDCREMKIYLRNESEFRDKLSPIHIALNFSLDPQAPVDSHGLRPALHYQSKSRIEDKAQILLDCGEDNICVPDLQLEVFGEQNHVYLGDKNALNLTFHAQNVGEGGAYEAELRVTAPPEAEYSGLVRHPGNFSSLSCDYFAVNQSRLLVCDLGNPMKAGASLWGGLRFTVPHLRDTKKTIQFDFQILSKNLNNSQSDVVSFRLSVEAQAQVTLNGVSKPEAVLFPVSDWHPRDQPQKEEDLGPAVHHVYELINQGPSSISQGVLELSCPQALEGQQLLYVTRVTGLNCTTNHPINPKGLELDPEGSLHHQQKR
# T1 sequence (P08648 895-1049 partner limits assumed): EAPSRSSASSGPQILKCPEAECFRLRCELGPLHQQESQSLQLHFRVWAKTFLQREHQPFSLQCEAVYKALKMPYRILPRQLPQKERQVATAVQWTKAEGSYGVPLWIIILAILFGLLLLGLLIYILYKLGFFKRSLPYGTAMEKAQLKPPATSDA
# T1 sequence (P05556 21-798): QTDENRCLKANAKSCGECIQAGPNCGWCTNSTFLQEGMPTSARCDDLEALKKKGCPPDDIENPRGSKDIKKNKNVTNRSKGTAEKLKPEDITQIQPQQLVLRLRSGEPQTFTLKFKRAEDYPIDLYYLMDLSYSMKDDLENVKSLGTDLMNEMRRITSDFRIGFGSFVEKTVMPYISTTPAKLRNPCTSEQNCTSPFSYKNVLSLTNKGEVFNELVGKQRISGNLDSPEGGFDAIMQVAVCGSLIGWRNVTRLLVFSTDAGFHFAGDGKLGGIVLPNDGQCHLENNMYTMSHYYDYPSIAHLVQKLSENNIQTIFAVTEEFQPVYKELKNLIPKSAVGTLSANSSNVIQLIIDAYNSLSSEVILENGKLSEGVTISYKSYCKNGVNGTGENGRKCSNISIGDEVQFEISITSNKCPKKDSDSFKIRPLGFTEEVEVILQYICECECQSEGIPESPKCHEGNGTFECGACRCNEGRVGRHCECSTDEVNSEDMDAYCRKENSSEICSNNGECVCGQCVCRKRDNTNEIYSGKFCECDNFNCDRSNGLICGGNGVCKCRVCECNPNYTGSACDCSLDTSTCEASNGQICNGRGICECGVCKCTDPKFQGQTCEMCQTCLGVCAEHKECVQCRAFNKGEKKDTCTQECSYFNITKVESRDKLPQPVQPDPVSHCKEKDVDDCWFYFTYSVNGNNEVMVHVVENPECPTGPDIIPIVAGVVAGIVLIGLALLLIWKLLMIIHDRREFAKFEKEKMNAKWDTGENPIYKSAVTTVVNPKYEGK
# Method: (§1) • (1) Bel-7402 tumor cells and MCF-7 fusion cultured to 80% after the 24-well plate, trypsinized collected, washed with ice-cold PBS twice, the cells were labeled prior containing 1% BSA resuspended in PBS 30 min. • (2) 2 μl mouse anti-human ανβ3 function-blocking monoclonal antibody (1.0 μg/μl, 1:200), mouse anti-human 2 μl α5β1 function-blocking monoclonal antibody (1.0 μg/μl, 1:200) and the cell suspension were incubated at 4° C. 1.5 h. • (3) collected the labeled cells and washed with ice-cold PBS twice, followed by 100 μl FITC labeled polypeptide modified mPEG-SC20k-HM-3 (2 mg/ml) and the cell suspension were incubated at 4° C. incubate 1.5 h • (4) After labeled, the cells were collected and washed with ice-cold PBS 2 times, followed by resuspension with 400 μl PBS and analyzed by flow cytometry, and detected intensity of the FITC fluorescence through channel FL1.
# [2] = target: T2, integrin ανβ3 (Homo sapiens, UniProt P05106+P06756); assay: as above; format: binding; conditions: Bel-7402 and MCF-7 cells, 2 mg/ml, FIG. 1
# T2 construct: Bel-7402 tumor cells and MCF-7 fusion cultured to 80%; endogenous in cells; host or cells: Bel-7402 and MCF-7 tumor cells
# T2 sequence (P06756 31-889 limits assumed): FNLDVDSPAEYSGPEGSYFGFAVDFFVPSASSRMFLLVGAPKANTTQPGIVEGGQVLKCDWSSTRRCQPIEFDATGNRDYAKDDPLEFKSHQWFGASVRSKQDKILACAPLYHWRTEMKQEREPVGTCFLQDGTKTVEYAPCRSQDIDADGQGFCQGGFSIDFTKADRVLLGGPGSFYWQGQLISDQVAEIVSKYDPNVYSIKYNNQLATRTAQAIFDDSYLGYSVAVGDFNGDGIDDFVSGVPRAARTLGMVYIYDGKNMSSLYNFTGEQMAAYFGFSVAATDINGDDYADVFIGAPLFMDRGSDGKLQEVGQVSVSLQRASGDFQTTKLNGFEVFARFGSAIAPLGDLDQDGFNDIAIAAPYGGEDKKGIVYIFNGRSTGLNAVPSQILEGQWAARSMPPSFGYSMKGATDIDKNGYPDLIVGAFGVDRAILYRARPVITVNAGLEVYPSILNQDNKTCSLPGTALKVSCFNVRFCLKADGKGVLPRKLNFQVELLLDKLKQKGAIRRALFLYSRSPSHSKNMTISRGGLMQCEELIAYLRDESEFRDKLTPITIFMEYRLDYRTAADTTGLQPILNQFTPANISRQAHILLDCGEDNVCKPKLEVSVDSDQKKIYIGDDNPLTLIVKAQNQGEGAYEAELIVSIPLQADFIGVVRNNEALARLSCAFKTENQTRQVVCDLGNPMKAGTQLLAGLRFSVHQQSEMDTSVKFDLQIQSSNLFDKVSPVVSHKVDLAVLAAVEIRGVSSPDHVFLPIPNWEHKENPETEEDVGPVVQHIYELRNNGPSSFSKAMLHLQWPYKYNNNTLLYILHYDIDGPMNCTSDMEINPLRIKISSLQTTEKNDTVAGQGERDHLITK
# T2 sequence (P06756 891-1048 partner limits assumed): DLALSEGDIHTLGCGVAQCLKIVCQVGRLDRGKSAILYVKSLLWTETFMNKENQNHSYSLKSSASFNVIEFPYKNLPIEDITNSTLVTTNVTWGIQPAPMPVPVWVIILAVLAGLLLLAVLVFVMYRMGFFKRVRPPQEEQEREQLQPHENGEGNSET
# T2 sequence (P05106 27-788): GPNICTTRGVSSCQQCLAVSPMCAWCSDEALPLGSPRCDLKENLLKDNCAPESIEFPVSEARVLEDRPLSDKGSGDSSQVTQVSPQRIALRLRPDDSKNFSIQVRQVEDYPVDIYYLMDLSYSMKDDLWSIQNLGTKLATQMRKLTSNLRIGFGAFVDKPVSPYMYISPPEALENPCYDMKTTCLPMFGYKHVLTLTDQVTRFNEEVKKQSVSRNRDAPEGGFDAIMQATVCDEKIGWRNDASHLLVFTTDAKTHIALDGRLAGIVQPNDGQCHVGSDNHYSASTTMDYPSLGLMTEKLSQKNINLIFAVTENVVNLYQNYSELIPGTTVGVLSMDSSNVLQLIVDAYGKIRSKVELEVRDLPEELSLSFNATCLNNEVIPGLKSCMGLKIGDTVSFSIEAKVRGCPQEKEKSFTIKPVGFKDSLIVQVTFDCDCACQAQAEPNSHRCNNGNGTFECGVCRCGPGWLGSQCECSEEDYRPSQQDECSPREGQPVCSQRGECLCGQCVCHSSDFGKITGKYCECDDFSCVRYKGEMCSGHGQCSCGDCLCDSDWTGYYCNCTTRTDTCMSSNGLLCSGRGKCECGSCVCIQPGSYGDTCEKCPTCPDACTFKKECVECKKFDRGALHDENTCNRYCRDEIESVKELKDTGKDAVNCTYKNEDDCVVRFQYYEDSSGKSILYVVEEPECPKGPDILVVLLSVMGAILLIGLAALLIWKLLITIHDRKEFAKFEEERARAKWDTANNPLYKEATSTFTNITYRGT
# Method: as §1
# [3] = system: human esophageal cancer Ec109 xenograft tumors; format: in vivo, nude mice; conditions: for Rate of inhibiting tumors / Tumor weight: Once 3 days
# Method: Tumor diameter was measured with a vernier caliper. […] Tumor volume formula: […]
# a, b respectively represent the length and width. […] The formula is as follows: […]
# TRTV: Treatment Group RTV; CRTV: Negative Control Group RTV
# [4] = rat, in vivo, iv
# Method: SD rats were randomly divided into six groups with the same number for male and female. Take three groups were administered intravenously integrin antagonist polypeptide with a high dose of 52 mg/kg (equivalent to HM-3 4.2 mg/kg), an intermediate dose of 26 mg/kg (equivalent to HM-3 2.1 mg/kg), a low-dose of 13 mg/kg (equivalent to HM-3 1.05 mg/kg). The other 3 groups were injected HM-3 with a high dose of 4.2 mg/kg, an intermediate dose of 2.1 mg/kg, a low doses of 1.05 mg/kg. Collected whole blood 0.5 ml once from the orbital venous plexus after 0.5 h, 1 h, 2 h, 3 h, 6 h, 12 h, 24 h, 48 h, 72 h, 96 h, 108 h, 132 h of drug administration, and applied heparin to get the effect of anti-coagulation. 12000 rpm/2 min centrifuged plasma. Draw supernatant 200 μl and 80° C. preheated PBS (0.05 M pH7.4) buffer 600 μl and mixed. Bath in the 80° C. water for 30 min. Centrifuged 2 min at 12000 rpm, and collected the supernatant, and stored in the condition of −20° C. Dissolved at room temperature, measured integrin antagonist peptide plasma concentration by ELISA.
# [5] = system: human nasopharyngeal cancer CNE xenograft tumors; assay: Tumor growth inhibition, CNE xenograft; conditions: for Rate of inhibiting tumors / Tumor weight: Once 3 days
# Method: (§2) Picked the tumor tissue of vigorous growth and was cut into pieces of about 1.5 mm^3. Under sterile conditions, the tumor tissue was inoculated subcutaneously on the right of nude mice. Tumor diameter was measured with a vernier caliper. The animals which had tumors with a size of 100-200 mm^3 were randomly divided into groups. The effect of polypeptide on anti-tumor was dynamically observed through the method of measuring tumor diameter. The times of measuring tumor diameter were once 2 days, and meantime, weighed mice. The mice in experimental group were infused polypeptide through tail vein, once 3 days. The mice in the placebo group were injected saline with the same volume. Tumor volume formula:
# a, b respectively represent the length and width. According to the result of measurement, calculate the relative tumor volume. Evaluation of antitumor activity is relative tumor proliferation rate T/C(%). The formula is as follows: T/C(%)^−TRTV/CRTV×100%
# [6] = system: human gastric cancer MGC803 xenograft tumors; assay: Tumor growth inhibition, MGC803 xenograft; conditions: for Rate of inhibiting tumors / Tumor weight: Once 3 days
# Method: as §2
# (§3) a, b respectively represent the length and width. According to the result of measurement, calculate the relative tumor volume. Evaluation of antitumor activity is relative tumor proliferation rate T/C(%). The formula is as follows: T/C(%)^=TRTV/CRTV×100%
# (§4) TRTV: Treatment group RTV; CRTV: negative control group RTV
# [7] = system: human bladder cancer HT1376 xenograft tumors; assay: Tumor growth inhibition, HT1376 xenograft; conditions: for Rate of inhibiting tumors / Tumor weight: Once 3 days
# Method: Human bladder cancer HT1376 cell lines in logarithmic growth phase were picked, and made into 5×10^7/ml cell suspension of under sterile conditions, and then 0.1 ml suspension was inoculated subcutaneously at the right armpit of nude mice. Tumor diameter was measured with a vernier caliper. The animals which had tumors with a size of 100-200 mm^3 were randomly divided into groups. The effect of polypeptide on anti-tumor was dynamically observed through the method of measuring tumor diameter. The times of measuring tumor diameter were once 2 days, and meantime, weighed mice. The mice in experimental group were infused polypeptide through tail vein. The mice in the placebo group were injected saline with the same volume, once 1 day; Taxol group: 10 mg/kg, once 1 week; Endostar group: 2.5 mg/kg, once 1 day; The groups of high, intermediate and low polypeptide: 6, 3, 1.5 mg/kg, respectively, once 1 day. After administration, all mice were sacrificed. Stripped the tumors and weighed.
# [8] = system: human breast cancer MDA-MB-231 xenograft tumors; assay: Tumor growth inhibition, MDA-MB-231 xenograft; conditions: for Rate of inhibiting tumors / Tumor weight: Once 3 days
# Method: Picked the tumor tissue of vigorous growth and was cut into pieces of about 1.5 mm^3. Under sterile conditions, the tumor tissue was inoculated subcutaneously on the right of nude mice. Tumor diameter was measured with a vernier caliper. The animals which had tumors with a size of 100-200 mm^3 were randomly divided into groups. The effect of polypeptide on anti-tumor was dynamically observed through the method of measuring tumor diameter. The times of measuring tumor diameter were once 2 days, and meantime, weighed mice. The mice in experimental group were infused polypeptide through tail vein, once 3 days. The mice in the placebo group were injected saline with the same volume. Tumor volume formula: TV=0.52×a×b^2
# as §3, §4
# [9] = high, 36.7 mg/kg, listed as polypeptide
# [10] = intermediate, 18.75 mg/kg, listed as polypeptide
# [11] = low, 9.38 mg/kg, listed as polypeptide
substance,measurement,setting,value
mPEG-SC20k-Ile-Val-Arg-Arg-Ala-Asp-Arg-Ala-Ala-Val-Pro-Gly-Gly-Gly-Gly-Arg-Gly-Asp ({mPEG‑SC20k}-IVRRADRAAVPGGGGRGD) [mPEG-SC20k-HM-3],binding to integrin α5β1,[1],able to bind
same,binding to integrin ανβ3,[2],able to bind
same,inhibition of tumor growth compared with negative control,"[3]; 36.7 mg/kg, P<0.05",significant inhibition role
same,Rate of inhibiting tumors,"[3]; high, 36.7 mg/kg",62.24%*
same,Tumor weight,"[3]; high, 36.7 mg/kg",0.183 g
same,Rate of inhibiting tumors,[3]; [9],62.24%
same,Rate of inhibiting tumors,"[3]; intermediate, 18.75 mg/kg",55.66%
same,Tumor weight,"[3]; intermediate, 18.75 mg/kg",0.318 g
same,Rate of inhibiting tumors,[3]; [10],55.66%
same,Rate of inhibiting tumors,"[3]; low, 9.38 mg/kg",50.16%
same,Tumor weight,"[3]; low, 9.38 mg/kg",0.406 g
same,Rate of inhibiting tumors,[3]; [11],50.16%
same,t1/2β,"[4]; both, SD",20.13 h
same,t1/2p,[4],20.13 h
same,t1/2β,[4],20.13 h
same,inhibition of tumor growth compared with negative control,"[5]; 36.7 mg/kg, P<0.05",significant inhibition role
same,toxic and side effects,"[5]; 36.7 mg/kg, compared with positive cisplatin group",no obvious toxic and side effects
same,Rate of inhibiting tumors,"[5]; high, 36.7 mg/kg",68.22%*
same,Tumor weight,"[5]; high, 36.7 mg/kg",0.382 g
same,Rate of inhibiting tumors,[5]; [9],68.22%
same,Rate of inhibiting tumors,"[5]; intermediate, 18.75 mg/kg",66.19%
same,Tumor weight,"[5]; intermediate, 18.75 mg/kg",0.406 g
same,Rate of inhibiting tumors,"[5]; low, 9.38 mg/kg",55.32%
same,Tumor weight,"[5]; low, 9.38 mg/kg",0.537 g
same,Rate of inhibiting tumors,[5]; [11],55.32%
same,inhibition of tumor growth compared with negative control,"[6]; 36.7 mg/kg, P<0.05",significant inhibition role
same,Rate of inhibiting tumors,"[6]; high, 36.7 mg/kg",73.42%*
same,Tumor weight,"[6]; high, 36.7 mg/kg",0.192 g
same,Rate of inhibiting tumors,[6]; [9],73.42%
same,Rate of inhibiting tumors,"[6]; intermediate, 18.75 mg/kg",69.86%
same,Tumor weight,"[6]; intermediate, 18.75 mg/kg",0.218 g
same,Rate of inhibiting tumors,[6]; [10],69.86%
same,Rate of inhibiting tumors,"[6]; low, 9.38 mg/kg",59.57%
same,Tumor weight,"[6]; low, 9.38 mg/kg",0.292 g
same,Rate of inhibiting tumors,[6]; [11],59.57%
same,inhibition of tumor growth compared with negative control,"[7]; 36.7 mg/kg, P<0.05",significant inhibition role
same,Rate of inhibiting tumors,"[7]; high, 36.7 mg/kg",63.42%*
same,Tumor weight,"[7]; high, 36.7 mg/kg",0.372 g
same,Rate of inhibiting tumors,[7]; [9],63.42%
same,Rate of inhibiting tumors,"[7]; intermediate, 18.75 mg/kg",54.24%
same,Tumor weight,"[7]; intermediate, 18.75 mg/kg",0.466 g
same,Rate of inhibiting tumors,[7]; [10],54.24%
same,Rate of inhibiting tumors,"[7]; low, 9.38 mg/kg",46.39%
same,Tumor weight,"[7]; low, 9.38 mg/kg",0.546 g
same,Rate of inhibiting tumors,[7]; [11],46.39%
same,inhibition of tumor growth compared with negative control,"[8]; 36.7 mg/kg, P<0.05",significant inhibition role
same,Rate of inhibiting tumors,"[8]; high, 36.7 mg/kg",63.05%*
same,Tumor weight,"[8]; high, 36.7 mg/kg",0.459 g
same,Rate of inhibiting tumors,[8]; [9],63.05%
same,Rate of inhibiting tumors,"[8]; intermediate, 18.75 mg/kg",59.11%
same,Tumor weight,"[8]; intermediate, 18.75 mg/kg",0.508 g
same,Rate of inhibiting tumors,[8]; [10],59.11%
same,Rate of inhibiting tumors,"[8]; low, 9.38 mg/kg",51.01%
same,Tumor weight,"[8]; low, 9.38 mg/kg",0.609 g
same,Rate of inhibiting tumors,[8]; [11],51.01%
